Source: US8299070B2, “Indole compounds and pharmaceutical use thereof” (Japan Tobacco Inc., priority 2009, dated 2012)
Where a name gives a salt, the structure may show the parent alone.

Biological target: T1, hITK enzyme (FLAG-tagged full-length hITK) (Homo sapiens, UniProt Q08881)
T1 construct: strongly expressing FLAG-tagged full-length hITK in Sf9 cells; FLAG; made in house; host or cells: Sf9 insect cells (ITK); Escherichia coli (GST-SLP76 substrate)
T1 sequence (Q08881 1-620): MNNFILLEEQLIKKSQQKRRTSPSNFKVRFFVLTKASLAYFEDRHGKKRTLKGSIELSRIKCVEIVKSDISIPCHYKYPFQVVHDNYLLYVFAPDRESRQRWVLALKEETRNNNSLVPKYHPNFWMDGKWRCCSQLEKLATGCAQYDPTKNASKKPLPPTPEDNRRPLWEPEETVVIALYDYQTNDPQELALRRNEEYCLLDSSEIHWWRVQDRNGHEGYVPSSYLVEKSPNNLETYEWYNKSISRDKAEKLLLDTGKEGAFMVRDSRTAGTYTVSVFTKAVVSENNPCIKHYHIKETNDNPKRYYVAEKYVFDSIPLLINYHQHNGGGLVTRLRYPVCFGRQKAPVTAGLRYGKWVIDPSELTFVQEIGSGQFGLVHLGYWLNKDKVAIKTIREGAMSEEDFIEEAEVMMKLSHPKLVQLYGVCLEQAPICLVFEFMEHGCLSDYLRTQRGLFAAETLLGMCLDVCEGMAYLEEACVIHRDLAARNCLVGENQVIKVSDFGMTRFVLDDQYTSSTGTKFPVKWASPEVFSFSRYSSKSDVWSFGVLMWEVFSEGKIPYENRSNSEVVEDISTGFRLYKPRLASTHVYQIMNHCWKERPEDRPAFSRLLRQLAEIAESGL
Assay: ITK inhibitory activity (HTRF kinase assay, biotinylated GST-SLP76 substrate)
Type: biochemical
Settings: IC50 calculated from the 2 test compound concentrations sandwiching 50% ITK inhibitory rate
Protocol: (1) Preparation of hITK Enzyme
hITK enzyme was prepared by strongly expressing FLAG-tagged full-length hITK in Sf9 cells, and purifying same by anti-FLAG antibody column.
(2) Preparation of biotinylated GST-SLP76
Biotinylated GST-SLP76 was prepared by strongly expressing GST-tagged SLP76 (aa95-175) in Escherichia coli, purifying same by glutathion sepharose column and biotinylating same.
(3) Preparation of Solution
(i) buffer for dilution: 20 mmol/L 3-(N-morpholino)propanesulfonic acid (pH 7.0) (DOJINDO LABORATORIES), 10 mmol/L magnesium chloride (Sigma-Aldrich Corporation), 1 mmol/L dithiothreitol (Nacalai Tesque, Inc.), 0.1% gelatin (Sigma-Aldrich Corporation)
(ii) substrate solution: 0.2 μg/mL biotinylated GST-SLP76, 100 μmol/L ATP (Sigma-Aldrich Corporation), prepared with buffer for dilution
(iii) test compound solution: test compound, 50% dimethyl sulfoxide (DMSO), prepared with buffer for dilution
(iv) enzyme solution: 50 ng/mL hITK enzyme, prepared with buffer for dilution
(v) control solution: solution after removal of test compound from the mixture of the above-mentioned (i), (ii) and (iii)
(vi) blank solution: solution after removal of ATP from the mixture of the above-mentioned (i), (ii) and (iii)
(vii) detection buffer: 0.1 μg/mL Anti-Phosphotyrosine (PT66)-Cryptate (Cisbio), 2.5 μg/mL streptavidin-binding XL665 (Cisbio), 50 mmol/L 4-(2-hydroxyethyl)-1-piperazineethanesulfonic acid (pH 7.4) (Nacalai Tesque, Inc.), 30 mmol/L EDTA (NipponGene), 0.1% TritonX (Sigma-Aldrich Corporation), 200 mmol/L potassium fluoride (Wako Pure Chemical Industries, Ltd.), 0.05% bovine serum albumin (Sigma-Aldrich Corporation) (4) Measurement of ITK Inhibitory Activity
A substrate solution (25 μL/well), a test compound solution (5 μL/well) and an enzyme solution (20 μL/well) were added into 96 well half-area white plate (plate, Corning Incorporated 3642) to start a kinase reaction. The plate was stood still at room temperature for 10 min. Then, a detection buffer (50 μL/well) was added to the plate. After 2 hr from the addition of the detection buffer, fluorescence intensity at 620 nm (excited at 337 nm), and fluorescence intensity at 665 nm ([…]) were measured by a fluorescence microplate reader.
The Ratio (fluorescence intensity at 665 nm/fluorescence intensity at 620 nm×10000) of each test compound was calculated from the measured fluorescence intensity. Simultaneously, the measurement was performed using a blank solution and a control solution, and % of control value of each test compound was calculated from the following formula. % of control=(Ratio of test compound−Ratio of blank)/(Ratio of control−Ratio of blank)×100 ITK inhibitory rate (%)=100−(% of control)
The IC50 value was calculated from the test compound concentrations at 2 points sandwiching 50% ITK inhibitory rate.
In the test for the compounds of Examples 380 and 381, the ATP concentration of the substrate solutions was 6 μmol/L.

| Structure (SMILES) | IC50 |
| --- | --- |
| CC(=O)N(C)c1ccc2cc(-c3n[nH]c4c3CCC(C)(C)C4)[nH]c2c1 [Example 1, N-[2-(6,6-dimethyl-4,5,6,7-tetrahydro-1H-indazol-3-yl)-1H-indol-6-yl]-N-methylacetamide] | 0.007 µM |
| CCN(C(C)=O)c1ccc2cc(-c3n[nH]c4c3CCC(C)(C)C4)[nH]c2c1 [Example 2, N-[2-(6,6-dimethyl-4,5,6,7-tetrahydro-1H-indazol-3-yl)-1H-indol-6-yl]-N-ethylacetamide] | 0.005 µM |
| CN(C(=O)OCc1ccccc1)c1ccc2cc(-c3n[nH]c4c3CCC(C)(C)C4)[nH]c2c1 [Example 3, benzyl N-{2-(6,6-dimethyl-4,5,6,7-tetrahydro-1H-indazol-3-yl)-1H-indol-6-yl}-N-methylcarbamate] | 0.039 µM |
| C[C@@H](C(=O)N(C)c1ccc2cc(-c3n[nH]c4c3CCC(C)(C)C4)[nH]c2c1)N1CCOCC1 [Example 4, (S)—N-[2-(6,6-dimethyl-4,5,6,7-tetrahydro-1H-indazol-3-yl)-1H-indol-6-yl]-N-methyl-2-(morpholin-4-yl)propionamide] | 0.002 µM |
| CN(C(=O)CN1CCOCC1=O)c1ccc2cc(-c3n[nH]c4c3CCC(C)(C)C4)[nH]c2c1 [Example 6, N-[2-(6,6-dimethyl-4,5,6,7-tetrahydro-1H-indazol-3-yl)-1H-indol-6-yl]-N-methyl-2-(3-oxomorpholin-4-yl)acetamide] | 0.002 µM |
| CN(C(=O)CN1CCCCC1=O)c1ccc2cc(-c3n[nH]c4c3CCC(C)(CO)C4)[nH]c2c1 (stereo not drawn) [Example 8, N-[2-(6-hydroxymethyl-6-methyl-4,5,6,7-tetrahydro-1H-indazol-3-yl)-1H-indol-6-yl]-N-methyl-2-(2-oxopiperidin-1-yl)acetamide] | 0.003 µM |
| CN(C(=O)c1ccc2cc(-c3n[nH]c4c3CCC(C)(C)C4)[nH]c2c1)c1ccccc1 [Example 10] | 0.045 µM |
| CC(NC(=O)c1ccc2cc(-c3n[nH]c4c3CCC(C)(C)C4)[nH]c2c1)C(C)(C)C (stereo not drawn) [Example 13] | 0.099 µM |
| CN1CCN(C(=O)c2ccc3cc(-c4n[nH]c5c4CCC(C)(C)C5)[nH]c3c2)CC1 [Example 14] | 0.04 µM |
| CN(CC(C)(C)C)C(=O)c1ccc2cc(-c3n[nH]c4c3CCC(C)(C)C4)[nH]c2c1 [Example 15] | 0.009 µM |
| CC(N(C)C(=O)c1ccc2cc(-c3n[nH]c4c3CCC(C)(C)C4)[nH]c2c1)C(C)(C)C (stereo not drawn) [Example 18] | 0.045 µM |
| CC1(C)CCc2c(-c3cc4ccc(C(=O)N5CCOCC5)cc4[nH]3)n[nH]c2C1 [Example 19] | 0.023 µM |
| COCC(C)NC(=O)c1ccc2cc(-c3n[nH]c4c3CCC(C)(C)C4)[nH]c2c1 (stereo not drawn) [Example 21] | 0.03 µM |
| CC(C)C(CO)NC(=O)c1ccc2cc(-c3n[nH]c4c3CCC(C)(C)C4)[nH]c2c1 (stereo not drawn) [Example 23] | 0.018 µM |
| CC(C)C(CO)N(C)C(=O)c1ccc2cc(-c3n[nH]c4c3CCC(C)(C)C4)[nH]c2c1 (stereo not drawn) [Example 25] | 0.026 µM |
| CC1(C)CCc2c(-c3cc4ccc(NC(N)=O)cc4[nH]3)n[nH]c2C1 [Example 29] | 0.085 µM |
| CN(C(=O)c1cccc(C(F)(F)F)c1)c1ccc2cc(-c3n[nH]c4c3CCC(C)(C)C4)[nH]c2c1 [Example 31] | 0.034 µM |
| CN(C(=O)CO)c1ccc2cc(-c3n[nH]c4c3CCC(C)(C)C4)[nH]c2c1 [Example 35] | 0.005 µM |
| COCC(=O)N(C)c1ccc2cc(-c3n[nH]c4c3CCC(C)(C)C4)[nH]c2c1 [Example 36] | < 0.003 µM |
| COC(C)(C)C(=O)N(C)c1ccc2cc(-c3n[nH]c4c3CCC(C)(C)C4)[nH]c2c1 [Example 42] | 0.022 µM |
| CN(C(=O)C(O)CO)c1ccc2cc(-c3n[nH]c4c3CCC(C)(C)C4)[nH]c2c1 (stereo not drawn) [Example 43] | 0.006 µM |
| CN(C(=O)COc1ccccc1)c1ccc2cc(-c3n[nH]c4c3CCC(C)(C)C4)[nH]c2c1 [Example 45] | < 0.003 µM |

The next lines start with the values.

| IC50 | Structure (SMILES) |
| --- | --- |
| 0.003 µM | C[C@@H](C(=O)N(C)c1ccc2cc(-c3n[nH]c4c3CCC(C)(C)C4)[nH]c2c1)N1CCOCC1 [Example 5, (S)—N-[2-(6,6-dimethyl-4,5,6,7-tetrahydro-1H-indazol-3-yl)-1H-indol-6-yl]-N-methyl-2-(morpholin-4-yl)propionamide hydrochloride] |
| 0.039 µM | CC(CO)N(C)C(=O)c1ccc2cc(-c3n[nH]c4c3CCC(C)(C)C4)[nH]c2c1 (stereo not drawn) [Example 7, 2-(6,6-dimethyl-4,5,6,7-tetrahydro-1H-indazol-3-yl)-1H-indole-6-carboxylic acid (2-hydroxy-1-methylethyl)methylamide] |
| 0.334 µM | CC1(C)CCc2c(-c3cc4ccc(C(=O)Nc5ccccc5)cc4[nH]3)n[nH]c2C1 [Example 9] |
| 0.036 µM | CC(C)(C)CNC(=O)c1ccc2cc(-c3n[nH]c4c3CCC(C)(C)C4)[nH]c2c1 [Example 11] |
| 0.033 µM | CC(C)CNC(=O)c1ccc2cc(-c3n[nH]c4c3CCC(C)(C)C4)[nH]c2c1 [Example 12] |
| 0.025 µM | CC1(C)CCc2c(-c3cc4ccc(C(=O)N5CCC(O)CC5)cc4[nH]3)n[nH]c2C1 [Example 16] |
| 0.005 µM | CC(C)CN(C)C(=O)c1ccc2cc(-c3n[nH]c4c3CCC(C)(C)C4)[nH]c2c1 [Example 17] |
| 0.047 µM | CC(CO)NC(=O)c1ccc2cc(-c3n[nH]c4c3CCC(C)(C)C4)[nH]c2c1 (stereo not drawn) [Example 20] |
| 0.04 µM | COCC(C)N(C)C(=O)c1ccc2cc(-c3n[nH]c4c3CCC(C)(C)C4)[nH]c2c1 (stereo not drawn) [Example 22] |
| 0.025 µM | COCC(NC(=O)c1ccc2cc(-c3n[nH]c4c3CCC(C)(C)C4)[nH]c2c1)C(C)C (stereo not drawn) [Example 24] |
| 0.085 µM | COCC(C(C)C)N(C)C(=O)c1ccc2cc(-c3n[nH]c4c3CCC(C)(C)C4)[nH]c2c1 (stereo not drawn) [Example 26] |
| 0.327 µM | CC1(C)CCc2c(-c3cc4ccc(NC(=O)c5ccccc5)cc4[nH]3)n[nH]c2C1 [Example 27] |
| 0.201 µM | CCC(=O)Nc1ccc2cc(-c3n[nH]c4c3CCC(C)(C)C4)[nH]c2c1 [Example 28] |
| 0.01 µM | CN(C(=O)c1ccccc1)c1ccc2cc(-c3n[nH]c4c3CCC(C)(C)C4)[nH]c2c1 [Example 30] |
| 0.004 µM | CCC(=O)N(C)c1ccc2cc(-c3n[nH]c4c3CCC(C)(C)C4)[nH]c2c1 [Example 32] |
| 0.011 µM | CN(C(=O)C1CCCC1)c1ccc2cc(-c3n[nH]c4c3CCC(C)(C)C4)[nH]c2c1 [Example 33] |
| 0.005 µM | CC(O)C(=O)N(C)c1ccc2cc(-c3n[nH]c4c3CCC(C)(C)C4)[nH]c2c1 (stereo not drawn) [Example 34] |
| 0.008 µM | CN(C(=O)C(C)(C)O)c1ccc2cc(-c3n[nH]c4c3CCC(C)(C)C4)[nH]c2c1 [Example 37] |
| 0.005 µM | CCCC(=O)N(C)c1ccc2cc(-c3n[nH]c4c3CCC(C)(C)C4)[nH]c2c1 [Example 38] |
| 0.004 µM | CC(C)C(=O)N(C)c1ccc2cc(-c3n[nH]c4c3CCC(C)(C)C4)[nH]c2c1 [Example 39] |
| 0.006 µM | CC(C)CC(=O)N(C)c1ccc2cc(-c3n[nH]c4c3CCC(C)(C)C4)[nH]c2c1 [Example 40] |
| 0.004 µM | COC(C)C(=O)N(C)c1ccc2cc(-c3n[nH]c4c3CCC(C)(C)C4)[nH]c2c1 (stereo not drawn) [Example 41] |
| < 0.003 µM | CCOCC(=O)N(C)c1ccc2cc(-c3n[nH]c4c3CCC(C)(C)C4)[nH]c2c1 [Example 44] |
